One experiment relates to HEK293T cells. The experiment is described as follows: Cytotoxicity MTT assay, HEK293T. Format: cell-based, human. Conditions: 48 h. Here is the method:
(§1) Human cervical adenocarcinoma (HeLa) cells (cat# CRM-CCL-2) were obtained from the American Type Culture Collection (ATCC, Manassas, VA, USA). Human breast adenocarcinoma (MCF7) cells, Human prostate adenocarcinoma (PC3) cells, Human gastric adenocarcinoma (AGS) cells and Human Embryonic Kidney cells (HEK293T) were kindly provided by the Universidad Industrial de Santander. HeLa, MCF7, and HEK293T cells were cultured in DMEM medium supplemented with 10% FBS (fetal bovine serum), 1% penicillin/streptomycin. PC3 and AGS cells were cultured in RPMI medium supplemented with 10% FBS, 1% penicillin/streptomycin. All cells were maintained at 37 °C and 5% CO2.
(§2) 15,000 cells per well were plated in 96-well plates (Greiner, Fisher Scientific, Waltham, MA, USA) using a fully complemented medium, and incubated at 37 °C. Following a 24 h period, cells underwent serum starvation before being treated with KP10 and its analogs at concentrations of 10, 100, 250, and 500 nM for 48 h. Subsequently, each well received 100 µL of MTT solution (0.5 mg/mL), and the plates were incubated at 37 °C for 3 h. After adding the MTT solvent and further incubation for 15 min, the resultant absorbance was measured at 590 nm using a BioTech RT-2100C microplate reader. Data analysis was performed using Prism 8.0 software (GraphPad).
(Tetrazolium dyes change colour on reduction, which living cells bring about.)

For experiment [1], the system named is PC3 cells. The experiment is described as follows: Cytotoxicity MTT assay, PC3. Type of experiment: cell-based, human. Conditions: 48 h. How it is done: as §1, §2
The target in experiment [2] is T1, kisspeptin receptor (Homo sapiens, UniProt Q969F8). The experiment is described as follows: BRET assay, Gq pathway. Also noted: expressed in transfected cells; host or cells: HeLa cells, transient transfection with PEI. The note with it: HeLa cells, Gq pathway. Type of experiment: cell-based. The source says:
(§3) The Bioluminescence Resonance Energy Transfer (BRET) assay was developed as described before. Briefly, HeLa cells were transiently transfected with these plasmids encoding for the GPCR, Gα subunit, the G protein effectors tagged with the BRET donor (RlucII), and the plasma membrane anchor (the CAAX motif from KRas, which includes a prenylation and a polybasic domain) fused to the BRET acceptor rGFP using Polietilendiimine (PEI) as described in Avet et al.. Fourty-eight hours post-transfection, cells were incubated with the coelenterazine substrate for Renilla luciferase Prolume Purple, stimulated with kisspeptin receptor agonists for 10 min and BRET signals were measured using a dual-filter luminometer (SPARK, Tecan Life Sciences, Männedorf, Switzerland). BRET ratios were calculated by dividing the acceptor emission by the donor emission, providing a quantitative measure for […]. Data were analyzed using Prism 8.0 (GraphPad) to determine interaction dynamics under various experimental conditions.
On the technique in general: BRET reads energy transfer from a luciferase to a nearby fluorophore.

Experiment [3] addresses T1, kisspeptin receptor. The experiment is described as follows: BRET assay, G11 pathway. Format: cell-based. Further details: expressed in transfected cells; host or cells: HeLa cells, transient transfection with PEI. The note with it: HeLa cells, G11 pathway; for EC50: read-out: pEC50 G11 (converted).
Source text: as §3

Experiment [4] deals with T1, kisspeptin receptor. The experiment is described as follows: BRET assay, G14 pathway. Type of experiment: cell-based. Also noted: expressed in transfected cells; host or cells: HeLa cells, transient transfection with PEI. Conditions: HeLa cells, G14 pathway; for EC50: read-out: pEC50 G14 (converted).
Source text: as §3

The target in experiment [5] is T1, kisspeptin receptor. The experiment is described as follows: BRET assay, G15 pathway. Further details: expressed in transfected cells; host or cells: HeLa cells, transient transfection with PEI. The note with it: HeLa cells, G15 pathway; for EC50: read-out: pEC50 G15 (converted). Format: cell-based.
Source text: as §3

Experiment [6] concerns the target T1, kisspeptin receptor. The experiment is described as follows: BRET assay, Gz pathway. Format: cell-based. Also noted: expressed in transfected cells; host or cells: HeLa cells, transient transfection with PEI. The note with it: HeLa cells; for Δ(logτ/KA) bias factor, Gαz pathway: operational model, KP10 as reference.
Source text: as §3, with “conditions. The bias factor for the kisspeptin analogs was calculated using the operational model of agonism as described by Kenakin [31]. Emax and EC50 values were determined for each signaling pathway (e.g., G protein activation, β-arrestin recruitment). The data were then fitted to the operational model to estimate transduction coefficients (τ). The bias factor (ΔLog(τ/KA)) was calculated by comparing the τ/KA values for each pathway relative to a reference pathway. This method quantifies signaling bias by evaluating relative efficacy and potency across pathways. Statistical significance of the observed bias was assessed to ensure the differences were not due to random variation. All calculations and analyses were performed using GraphPad Prism software (GraphPad, San Diego, CA, USA).” for “conditions.”

Experiment [7] has as its target T1, kisspeptin receptor. As to the kind of experiment: BRET assay, β-arrestin2 recruitment. Format: cell-based. Further details: expressed in transfected cells; host or cells: HeLa cells, transient transfection with PEI. Conditions: HeLa cells, β-arrestin2 recruitment.
Source text: as §3

Experiment [8] deals with HeLa cells. The experiment is described as follows: Cytotoxicity MTT assay, HeLa. The note with it: 48 h. Format: cell-based, human. How it is done:
as §1, §2

The subject of experiment [9] is HeLa cells. As to the kind of experiment: In vitro wound healing assay, HeLa. Format: cell-based, human. Conditions: particularly at 48 and 72 h. Here is the method: (§4) Cells (3 × 10^5 cells/well) were seeded in 24-well plates for 24 h. Then, a sterile pipette tip of 20–200 μL was held vertically to create a cross-shaped scratch in each well. The detached cells were carefully removed by washing with 500 μL PBS and shaking at 500 rpm for 5 min. Then, 500 μL of medium containing the peptides to be tested was added to each well and incubated for 72 h. Prior taking each image, the plate was washed with 500 μL of PBS and gently shaken for 30 s. Then, 500 μL of medium containing the corresponding peptides was added to each well again and images were taken at 24 h intervals using a Primovert microscope at 4× magnification and 1/3700 s exposure time. Wound opening areas were obtained using Prism 8.0 software (GraphPad).

A further experiment has as its system MCF7 cells. As to the kind of experiment: In vitro wound healing assay, MCF7. Type of experiment: cell-based, human. Conditions: MCF7, particularly at 48 and 72 h. Here is the method:
as §4

For experiment [10], the system named is PC3 cells. As to the kind of experiment: In vitro wound healing assay, PC3. Type of experiment: cell-based, human. Conditions: PC3, difference to control less marked. Here is the method:
as §4

In a further experiment the test system is AGS cells. The experiment is described as follows: In vitro wound healing assay, AGS. The note with it: difference to control less marked. Type of experiment: cell-based, human. Here is the method: as §4
Experiment [11] concerns the target T1, kisspeptin receptor. The experiment is described as follows: BRET assay, β-arrestin1 recruitment. The note with it: HeLa cells, β-arrestin1 recruitment. Also noted: expressed in transfected cells; host or cells: HeLa cells, transient transfection with PEI. Type of experiment: cell-based.
Source text: as §3

In experiment [12] the target is T1, kisspeptin receptor.
For experiment [13], the target named is T1, kisspeptin receptor. This is another data set of the same source.
Where [14] appears, read: Gz pathway, mean of 4 experiments, read-out: EC50(M) Gz.
[15] abbreviates: Gz pathway, read-out: pEC50 Gz (converted).
[16] abbreviates: read-out: pEC50 β-arrestin2 (converted).

Data on 7 molecules can be found in PMC11352469, “Comprehensive Analysis of Kisspeptin Signaling: Effects on Cellular Dynamics in Cervical Cancer” (Biomolecules, 2024).

A word on the Emax: it is the size of the effect at its maximum, as opposed to the concentration needed.

Residues, ends and D or L forms follow the SMILES beside them.

T1 sequence (Q969F8 whole entry, the tested form may be a part): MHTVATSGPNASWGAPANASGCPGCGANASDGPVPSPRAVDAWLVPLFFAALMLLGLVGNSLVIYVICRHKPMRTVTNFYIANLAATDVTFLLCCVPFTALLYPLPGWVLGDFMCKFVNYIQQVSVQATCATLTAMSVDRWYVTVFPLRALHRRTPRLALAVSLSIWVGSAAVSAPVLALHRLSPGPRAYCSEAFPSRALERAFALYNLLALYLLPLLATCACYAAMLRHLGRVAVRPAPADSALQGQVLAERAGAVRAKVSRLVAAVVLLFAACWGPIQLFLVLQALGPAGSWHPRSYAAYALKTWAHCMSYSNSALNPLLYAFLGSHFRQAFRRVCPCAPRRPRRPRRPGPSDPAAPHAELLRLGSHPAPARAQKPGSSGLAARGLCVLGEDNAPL

In the case of `CC(C)C[C@H](NC(=O)CNC(=O)[C@H](Cc1ccccc1)NC(=O)[C@H](CO)NC(=O)[C@H](CC(N)=O)NC(=O)[C@H](Cc1c[nH]c2ccccc12)NC(=O)[C@H](CC(N)=O)NC(=O)[C@@H](N)Cc1ccc(O)cc1)C(=O)N[C@@H](CCCN=C(N)N)C(=O)N[C@@H](Cc1ccccc1)C(N)=O` [KP-10, kisspeptin-10, reference compound], the “pIC50 HEK293T” value with HEK293T cells is on record as 2.489. In addition, the “pIC50 PC3” value in the experiment with PC3 cells [1] worked out at 2.678. Besides, the EC50 at kisspeptin receptor [2] was 13.5 nM; at kisspeptin receptor [3], 38 nM; at kisspeptin receptor [4] it was 33.1 nM; on kisspeptin receptor [5] it was 26.9 nM; on kisspeptin receptor [6] (setting [14]) it was 1.63e-07 M; on kisspeptin receptor [6] (setting [15]), 1.35e-07 M. Also, at kisspeptin receptor [7] (setting [16]), the EC50 was 3.72e-07 M. For the same molecule, the “Δ(logτ/KA) bias factor, Gαz pathway” value on kisspeptin receptor [6] is on record as 0.

Turning to “Ala^1-KP10: Ala-Asn-Trp-Asn-Ser-Phe-Gly-Leu-Arg-Phe; KP10 Ala-scan analog (ANWNSFGLRF; printed: Ala-Asn-Trp-Asn-Ser-Phe-Gly-Leu-Arg-Phe)”, the “pIC50 HEK293T” value in the experiment on HEK293T cells came out at 2.311. Further, the “pIC50 HeLa” value in the experiment with HeLa cells [8] was determined as 2.483. For the same molecule, the “pIC50 PC3” value in the experiment on PC3 cells [1] is 2.475.

Take `CC(C)C[C@H](NC(=O)CNC(=O)[C@H](Cc1ccccc1)NC(=O)[C@H](CO)NC(=O)[C@H](C)NC(=O)[C@H](Cc1c[nH]c2ccccc12)NC(=O)[C@H](CC(N)=O)NC(=O)[C@@H](N)Cc1ccc(O)cc1)C(=O)N[C@@H](CCCNC(=N)N)C(=O)N[C@@H](Cc1ccccc1)C(N)=O` [Ala^4-KP10] (H-YNWASFGLRF-NH2; N-terminus assumed): the “pIC50 PC3” value in the experiment with PC3 cells [1] came to 2.541. The “migration inhibition (wound closure)” value is listed as “most pronounced effects” in the experiment with HeLa cells [9], “most pronounced effects” in the experiment on MCF7 cells, “more inhibitory treatment” with PC3 cells [10] and “more inhibitory treatment” in the experiment on AGS cells. The EC50 at kisspeptin receptor [2] is 214 nM; at kisspeptin receptor [3] it was 447 nM; at kisspeptin receptor [4], 355 nM; on kisspeptin receptor [5] it was 339 nM; on kisspeptin receptor [6] (setting [14]), 1.1e-06 M; on kisspeptin receptor [6] (setting [15]) it was 9.12e-07 M. Moreover, the EC50 on kisspeptin receptor [11] (mean of 4 experiments) was 13000 nM; at kisspeptin receptor [7] (mean of 4 experiments, read-out: EC50(M) β-arrestin2), 2.58e-06 M; on kisspeptin receptor [7] (setting [16]) it was 2.51e-06 M. Also, the Emax at kisspeptin receptor [2] (KP10 = 100%) came out at 104%; on kisspeptin receptor [3] (KP10 = 100%) it was 106%; at kisspeptin receptor [4] (KP10 = 100%) it was 97.7%; on kisspeptin receptor [5] (KP10 = 100%) it was 101%; on kisspeptin receptor [6] (Gz pathway, KP10 = 100%) it was 84.7%; on kisspeptin receptor [11] (KP10 = 100%) it was 69.1%. The molecule further came in with an Emax at kisspeptin receptor [7] (KP10 = 100%) of 79%. The “Δ(logτ/KA) bias factor, Gαz pathway” value at kisspeptin receptor [6] is −1.66.

With “Ala^9-KP10: Tyr-Asn-Trp-Asn-Ser-Phe-Gly-Leu-Ala-Phe; KP10 Ala-scan analog (YNWNSFGLAF; printed: Tyr-Asn-Trp-Asn-Ser-Phe-Gly-Leu-Ala-Phe)”, the “pIC50 HeLa” value with HeLa cells [8] turned out to be 2.429. For the same molecule, the “pIC50 PC3” value with PC3 cells [1] came to 2.295.

With “Ala^10-KP10: Tyr-Asn-Trp-Asn-Ser-Phe-Gly-Leu-Arg-Ala; KP10 Ala-scan analog (YNWNSFGLRA; printed: Tyr-Asn-Trp-Asn-Ser-Phe-Gly-Leu-Arg-Ala)”, in the experiment on HeLa cells [8], the “pIC50 HeLa” value amounted to 2.493. Also, the “pIC50 PC3” value in the experiment on PC3 cells [1] is reported as 1.739.

In the case of YNWASFGLRF [Ala^4-KP10], the EC50 of Gαz pathway activation, effector-RlucII / rGFP-CAAX BRET biosensor in transfected HeLa cells, 10 min stimulation with kisspeptin receptor [12] worked out at 1100 nM. In the experiment with kisspeptin receptor [13], this molecule showed an EC50 of β-arrestin1 recruitment, BRET biosensor in transfected HeLa cells of 13000 nM and an EC50 of β-arrestin2 recruitment, BRET biosensor in transfected HeLa cells of 2580 nM.

In the case of YNANSFGLRF [Ala^3-KP10], in the experiment with kisspeptin receptor [12], the EC50 of Gαz pathway activation, effector-RlucII / rGFP-CAAX BRET biosensor in transfected HeLa cells, 10 min stimulation came to 646 nM. Also, in the experiment with kisspeptin receptor [13], the EC50 of β-arrestin1 recruitment, BRET biosensor in transfected HeLa cells is 1190 nM and the EC50 of β-arrestin2 recruitment, BRET biosensor in transfected HeLa cells turned out to be 1430 nM.
